# Assay results reported in patent publication US8937072B2, “Substituted cyanoaniline compounds, preparation and use thereof” (Sinochem Corporation, priority 2011, dated 2015).
# Like-named read-outs stand apart in the source and are kept apart here.
# Key:
# cucumber downy mildew = assay: Protectant activity in vivo (whole plant) against cucumber downy mildew; details: for pest or weed control at 12.5 µg/mL / pest or weed control at 25 µg/mL / pest or weed control at 50 µg/mL / pest or weed control at 100 µg/mL / pest or weed control at 400 µg/mL: Cucumis sativus, 168 h; for pest or weed control at 25 µg/mL / pest or weed control at 50 µg/mL / pest or weed control at 100 µg/mL: read-out: the protectant activity (%) against cucumber downy mildew
# Method: (§1) The method is as followed: The whole plant is used in this test. The compound is dissolved in a proper solvent to get mother solution. The proper solvent is selected from acetone, methanol, DMF and so on according to their dissolving capability to the sample. The volume rate of solvent and testing solution (v/v) is equal to or less than 5%. The mother solution is diluted with water containing 0.1% tween-80 to get the testing solution whose concentration is designed. The testing solution is sprayed to the host plant by a special plant sprayer. The plant is inoculated with fungus after 24 hours. According to the infecting characteristic of fungus, the plant is stored in a humidity chamber and then transferred into greenhouse after infection is finished. And the other plants are placed in greenhouse directly. The activity of compound is obtained by eyeballing after 7 days in common.
# rice blast = assay: microbe, parasite or virus in culture; format: cell-based; details: for inhibition rate against rice blast: in vitro, dose 8.3 mg/L; for the inhibition rate against rice blast (%) 0.03 mg/L: Table 21, 0.03 mg/L; for the inhibition rate against rice blast (%) 0.1 mg/L: Table 21, 0.1 mg/L; for the inhibition rate against rice blast (%) 0.3 mg/L: Table 21, 0.3 mg/L
# cucumber gray mold = assay: Activity in vitro (96-well, High Through Put): inhibition rate against cucumber gray mold; format: cell-based; details: for inhibition at 0.3 µg/mL: 0.3 mg/L; for inhibition at 0.9 µg/mL / inhibition at 2.8 µg/mL / inhibition at 8.3 µg/mL: read-out: the inhibition rate against cucumber gray mold (%); for inhibition at 25 µg/mL: in vitro, dose 25 mg/L
# Method: The method is as followed: High Through Put is used in the test. The compound is dissolved in a proper solvent to become a testing solution whose concentration is designed. The solvent is selected from acetone, methanol, DMF and so on according to their dissolving capability to the sample. In a no animalcule condition, the testing solution and pathogens suspension are added into the cells of 96 cells culture board, which then should be placed in the constant temperature box. 24 hours later, pathogen germination or growth can be investigated by eyeballing, and the activity in vitro of the compound is evaluated based on germination or growth of control treatment.
# corn rust = assay: Protectant activity in vivo (whole plant) against corn rust; details: for pest or weed control at 6.25 µg/mL / pest or weed control at 25 µg/mL / pest or weed control at 100 µg/mL / pest or weed control at 400 µg/mL: Zea mays, 168 h
# Method: as §1
# [1] = 400 mg/L, read-out: the protectant activity (%) against corn rust
# [2] = dose 400 mg/L, read-out: protectant activity against corn rust in vivo
structure (smiles),measurement,setting,value
N#Cc1c(Cl)c(Cl)c(C#N)c(Nc2ncccn2)c1Cl [Compound C-126],protectant activity against cucumber downy mildew in vivo,cucumber downy mildew; dose 400 mg/L,100%
same,inhibition rate against rice blast,rice blast,80%
N#Cc1c(Cl)c(Cl)c(C#N)c(Nc2c(Cl)cncc2Cl)c1Cl [Compound C-124],protectant activity against cucumber downy mildew in vivo,cucumber downy mildew; dose 50 mg/L,100%
same,protectant activity against cucumber downy mildew in vivo,cucumber downy mildew; dose 100 mg/L,100%
same,protectant activity against cucumber downy mildew in vivo,cucumber downy mildew; dose 400 mg/L,100%
same,the inhibition rate against rice blast (%) 0.03 mg/L,rice blast,100%
same,the inhibition rate against rice blast (%) 0.1 mg/L,rice blast,100%
same,the inhibition rate against rice blast (%) 0.3 mg/L,rice blast,100%
N#Cc1c(Cl)c(Cl)c(Nc2cc(C(F)(F)F)ccc2F)c(C#N)c1Cl [Compound B-30],the inhibition rate against rice blast (%) 0.03 mg/L,rice blast,0%
same,the inhibition rate against rice blast (%) 0.1 mg/L,rice blast,50%
same,the inhibition rate against rice blast (%) 0.3 mg/L,rice blast,100%
N#Cc1c(Cl)c(Cl)c(C#N)c(Nc2cc(Cl)cnc2Cl)c1Cl [Compound C-118],protectant activity against cucumber downy mildew in vivo,cucumber downy mildew; dose 400 mg/L,100%
same,the inhibition rate against rice blast (%) 0.03 mg/L,rice blast,100%
same,the inhibition rate against rice blast (%) 0.1 mg/L,rice blast,100%
same,the inhibition rate against rice blast (%) 0.3 mg/L,rice blast,100%
N#Cc1c(Cl)c(Cl)c(Nc2nc(Cl)c(Cl)cc2Cl)c(C#N)c1Cl [Compound B-128],protectant activity against cucumber downy mildew in vivo,cucumber downy mildew; dose 50 mg/L,98%
same,protectant activity against cucumber downy mildew in vivo,cucumber downy mildew; dose 100 mg/L,100%
same,protectant activity against cucumber downy mildew in vivo,cucumber downy mildew; dose 400 mg/L,100%
same,the inhibition rate against rice blast (%) 0.03 mg/L,rice blast,100%
same,the inhibition rate against rice blast (%) 0.1 mg/L,rice blast,100%
same,the inhibition rate against rice blast (%) 0.3 mg/L,rice blast,100%
COc1ccc(Nc2c(Cl)c(C#N)c(Cl)c(Cl)c2C#N)cc1 [Compound C-14],inhibition rate against rice blast,rice blast,80%
COc1ccc(Nc2c(F)c(C#N)c(F)c(F)c2C#N)cc1 [Compound C-68],inhibition rate against rice blast,rice blast,80%
O=[N+]([O-])c1cc(C(F)(F)F)c(Cl)c([N+](=O)[O-])c1Nc1ncc(C(F)(F)F)cc1Cl [fluazinam],inhibition at 0.03 µg/mL,"rice blast; Pyricularia oryzae, read-out: the inhibition rate against rice blast (%) 0.03 mg/L",50%
same,inhibition at 0.1 µg/mL,"rice blast; Pyricularia oryzae, read-out: the inhibition rate against rice blast (%) 0.1 mg/L",80%
same,inhibition at 0.3 µg/mL,"rice blast; Pyricularia oryzae, read-out: the inhibition rate against rice blast (%) 0.3 mg/L",100%
CN(C)c1ccc(Nc2c(F)c(F)c(C#N)c(F)c2C#N)cc1 [KC24],pest or weed control at 12.5 µg/mL,cucumber downy mildew; 12.5 mg/L,0%
same,pest or weed control at 25 µg/mL,cucumber downy mildew; 25 mg/L,0%
same,pest or weed control at 50 µg/mL,cucumber downy mildew; 50 mg/L,0%
same,pest or weed control at 100 µg/mL,cucumber downy mildew; 100 mg/L,0%
same,pest or weed control at 400 µg/mL,cucumber downy mildew; dose 400 mg/L,0%
same,inhibition at 0.3 µg/mL,cucumber gray mold,0%
same,inhibition at 0.9 µg/mL,cucumber gray mold; 0.9 mg/L,0%
same,inhibition at 2.8 µg/mL,cucumber gray mold; 2.8 mg/L,0%
same,inhibition at 8.3 µg/mL,cucumber gray mold; 8.3 mg/L,0%
same,inhibition at 25 µg/mL,cucumber gray mold,0%
same,pest or weed control at 6.25 µg/mL,corn rust; 6.25 mg/L,0%
same,pest or weed control at 25 µg/mL,corn rust; 25 mg/L,0%
same,pest or weed control at 100 µg/mL,corn rust; 100 mg/L,0%
same,pest or weed control at 400 µg/mL,corn rust; [1],0%
same,pest or weed control at 400 µg/mL,corn rust; [2],0%
N#Cc1c(Cl)c(Cl)c(Nc2c(Br)cc([N+](=O)[O-])cc2Br)c(C#N)c1Cl [Compound B-57],the protectant activity (%) against cucumber downy mildew,cucumber downy mildew; 12.5 mg/L,30%
same,the protectant activity (%) against cucumber downy mildew,cucumber downy mildew; 25 mg/L,100%
same,the protectant activity (%) against cucumber downy mildew,cucumber downy mildew; 50 mg/L,100%
same,the protectant activity (%) against cucumber downy mildew,cucumber downy mildew; 100 mg/L,100%
same,protectant activity against cucumber downy mildew in vivo,cucumber downy mildew; dose 25 mg/L,100%
same,protectant activity against cucumber downy mildew in vivo,cucumber downy mildew; dose 50 mg/L,100%
same,protectant activity against cucumber downy mildew in vivo,cucumber downy mildew; dose 100 mg/L,100%
same,protectant activity against cucumber downy mildew in vivo,cucumber downy mildew; dose 400 mg/L,100%
same,the inhibition rate against cucumber gray mold (%),cucumber gray mold; 0.9 mg/L,80%
same,the inhibition rate against cucumber gray mold (%),cucumber gray mold; 2.8 mg/L,100%
same,the inhibition rate against cucumber gray mold (%),cucumber gray mold; 8.3 mg/L,100%
same,the protectant activity (%) against corn rust,corn rust; 6.25 mg/L,60%
same,the protectant activity (%) against corn rust,corn rust; 25 mg/L,80%
same,the protectant activity (%) against corn rust,corn rust; 100 mg/L,85%
same,the protectant activity (%) against corn rust,corn rust; 400 mg/L,100%
same,protectant activity against corn rust in vivo,corn rust; dose 400 mg/L,100%
COc1ccc(Nc2c(F)c(F)c(C#N)c(C#N)c2F)c(OC)c1 [KC27],pest or weed control at 12.5 µg/mL,cucumber downy mildew; 12.5 mg/L,0%
same,pest or weed control at 25 µg/mL,cucumber downy mildew; 25 mg/L,0%
same,pest or weed control at 50 µg/mL,cucumber downy mildew; 50 mg/L,0%
same,pest or weed control at 100 µg/mL,cucumber downy mildew; 100 mg/L,0%
same,pest or weed control at 400 µg/mL,cucumber downy mildew; dose 400 mg/L,0%
same,inhibition at 0.3 µg/mL,cucumber gray mold,0%
same,inhibition at 0.9 µg/mL,cucumber gray mold; 0.9 mg/L,0%
same,inhibition at 2.8 µg/mL,cucumber gray mold; 2.8 mg/L,0%
same,inhibition at 8.3 µg/mL,cucumber gray mold; 8.3 mg/L,0%
same,inhibition at 25 µg/mL,cucumber gray mold,0%
same,pest or weed control at 6.25 µg/mL,corn rust; 6.25 mg/L,0%
same,pest or weed control at 25 µg/mL,corn rust; 25 mg/L,0%
same,pest or weed control at 100 µg/mL,corn rust; 100 mg/L,0%
same,pest or weed control at 400 µg/mL,corn rust; [1],0%
same,pest or weed control at 400 µg/mL,corn rust; [2],0%
